Data set [1] concerns RNA and DNA synthesis. The data set can be described thus: Inhibition of RNA and DNA synthesis. In kind it is cell-based.
The test system of data set [2] is Epstein-Barr virus.
In data set [3] the test system is S. aureus ATCC 25923. The data set can be described thus: Minimum bactericidal concentration (MBC), S. aureus. In kind it is cell-based. Here is the method:
(§1) To evaluate the bactericidal action of the antibacterial composition based on light isotope ^64Zne the minimum bactericidal concentration (MBC) was determined by plating out 0.1 ml of the contents of each tube containing the antibacterial composition on Mueller-Hinton medium. The incubation was at 37° C. for 24 h.
(§2) The MBC of the test samples was determined as the lowest concentration at which there was no growth on Mueller-Hinton agar medium.
(§3) The conditions of the experiment were like those for Zn-64 compound.

For data set [4], the system named is E. coli ATCC 25922. Put plainly: Minimum bactericidal concentration (MBC), E. coli. It is filed as cell-based. The method, then: as §1, §2, §3
Data set [5] has as its system P. aeruginosa ATCC 27853. The data set can be described thus: Minimum bactericidal concentration (MBC), P. aeruginosa. It is filed as cell-based. The method, then: as §1, §2, §3
Data set [6] has as its system P. aeruginosa ATCC 27853. Put plainly: MIC (bacteriostatic activity), P. aeruginosa. In kind it is cell-based. The settings on record: for MIC: Table 5.
Description: as §3

The test system of data set [7] is S. aureus ATCC 25923. The data set can be described thus: MIC (bacteriostatic activity), S. aureus. The conditions noted are these: Table 5. It is filed as cell-based.
Description: as §3

In data set [8] the test system is E. coli ATCC 25922. Put plainly: MIC (bacteriostatic activity), E. coli. In kind it is cell-based. The conditions noted are these: Table 5.
Description: as §3

For data set [9], the system named is influenza virus. The data set can be described thus: In vitro reproduction of influenza virus. It is filed as cell-based.
For data set [10], the system named is herpes virus. It is filed as cell-based. The conditions noted are these: in vitro.
Data set [11] concerns BVDV—bovine viral diarrhea virus. In kind it is cell-based. The settings on record: in vitro.

Where a name gives a salt, the structure may show the parent alone. Marks after values point to notes of the source that are not given here. Where only a bound is given, the exact number is not on record here.

With `O=C(O)CC(O)(CC(=O)O)C(=O)O` [^64Zne citrate], in data set [1], the “RNA and DNA synthesis” value is reported as “Inhibition”. Moreover, the “assessment of cytotoxicity and antiviral activity for anti-EBV infection” value in data set [2] was “most promising”.

As to `NC(CCC(=O)[O-])C(=O)[O-].[64Zn+2]` (stereo not drawn) [^64Zne glutamate], in [1], the “RNA and DNA synthesis” value is on record as “Inhibition”. In addition, the MBC is 0.046* mcg ^64Zne/ml in data set [3] (37° C. 24 h, Table 4); 0.37* mcg ^64Zne/ml in data set [4] (37° C. 24 h, Table 4); over 750 mcg ^64Zne/ml in data set [5] (37° C. 24 h, Table 4). In addition, in data set [6], the “bacteriostatic activity (in words)” value is reported as “best results”.

As to `O=S(=O)([O-])[O-].[64Zn+2]` [^64Zne sulfate], the MBC in [3] (37° C. 24 h, Table 4) is 0.37* mcg ^64Zne/ml; in data set [3] (Table 6) it was 0.3662 mcg zinc/ml; in data set [4] (37° C. 24 h, Table 4), 1.46* mcg ^64Zne/ml; in data set [4] (Table 6), 1.4648 mcg zinc/ml; in [5] (37° C. 24 h, Table 4) it was 375 mcg ^64Zne/ml; in data set [5] (Table 6) it was 375 mcg zinc/ml. Besides, the MIC in data set [7] is on record as 0.366 zinc mcg/ml; in [8], 0.0916 zinc mcg/ml; in [6], 46.875 zinc mcg/ml.

For the molecule `NC(CCC(=O)[O-])C(=O)[O-].[64Zn+2]` (stereo not drawn) [zinc-64 light isotope glutamate], in data set [9], the “reproduction of influenza virus” value is “effectively inhibited”. Moreover, the “reproduction of herpes virus” value in data set [10] is “effectively inhibited”. Further, the “reproduction of surrogate model of HCV (BVDV) virus” value in data set [11] is “effectively inhibited”.

Consider Zn64 EDDA, for which the “bacteriostatic activity (in words)” value in [6] is “best results”. Moreover, the “assessment of cytotoxicity and antiviral activity for anti-EBV infection” value in data set [2] is recorded as “most promising”.

On to `O=S(=O)([O-])[O-].[Zn+2]` [Natural zinc - sulfate, reference compound], for which the MBC in data set [3] (Table 6), in [4] (Table 6) and in [5] (Table 6) was over 750 mcg zinc/ml throughout. For the same molecule, the MIC in data set [7] was found to be 93.75 zinc mcg/ml; in data set [8], 187.5 zinc mcg/ml; in data set [6] it was 750 zinc mcg/ml.

Turning to `N[C@@H](CCC(=O)[O-])C(=O)[O-].[Zn+2]` [Zinc glutamate, reference compound], the “reproduction of influenza virus” value in data set [9] is listed as “effectively inhibited”. Further, the “reproduction of herpes virus” value in [10] is on record as “effectively inhibited”. Moreover, the “reproduction of surrogate model of HCV (BVDV) virus” value in data set [11] is listed as “effectively inhibited”.

For the molecule ^64Zne EDDS, the MBC was 0.73* mcg ^64Zne/ml in [3] (37° C. 24 h, Table 4); 0.7324 mcg zinc/ml in data set [3] (Table 6); 2.93* mcg ^64Zne/ml in data set [4] (37° C. 24 h, Table 4); 2.9296 mcg zinc/ml in data set [4] (Table 6); 375 mcg ^64Zne/ml in data set [5] (37° C. 24 h, Table 4); 375 mcg zinc/ml in [5] (Table 6). The results for the MIC in [7], in data set [8] and in data set [6] were 0.73 zinc mcg/ml, 0.18 zinc mcg/ml and 5.86 zinc mcg/ml, respectively.

For the origin of these results see US12233089B2, “Foods to promote better health and/or to maintain homeostasis and method of production thereof” (Vector Vitale IP LLC, priority 2021, dated 2025).
